{"source": "patent US8440723B2", "about": "“Metformin salts of salicylic acid and its congeners” (priority 2011, dated 2013)", "origin": "cited, not measured here", "key": {"[1]": {"conditions": "The Merck Index, Eleventh Edition"}, "[2]": {"tested_on": "patients with type 2 diabetes"}}, "data": [{"smiles": "O=C(O)c1ccccc1O", "note": "[salicylic acid]", "values": [{"measurement": "volume of water in which 1 g is soluble", "setting": "[1]; 1 g of substance", "result": 460, "unit": "mL"}, {"measurement": "water solubility", "setting": "[1]", "result": 2170, "unit": "µg/mL"}]}, {"smiles": "O=C(Oc1ccccc1C(=O)O)c1ccccc1O", "note": "[salsalate, 2-(2-hydroxybenzoyl)oxybenzoic acid]", "values": [{"measurement": "solubility in water (in words)", "setting": "[1]", "result": "practically insoluble in water"}, {"measurement": "effect on blood glucose, HbA1c, triglycerides, free fatty acid and C-reactive protein", "setting": "[2]", "result": "lowers blood glucose, HbA1c levels, triglycerides, free fatty acid and C-reactive protein"}]}]}
